Laboratory results published in patent US20110143946A1, “Method for predicting the response of a tumor in a patient suffering from or at risk of developing recurrent gynecologic cancer towards a chemotherapeutic agent” (SIEMENS HEALTHCARE DIAGNOSTICS INC., priority 2007, published 2011).

Legend:
primary tumors = assay: in vitro chemosensitivity assay of primary tumors (ATP-measurement, AUC of dose-response curve); format: cell-based; details: 6 days of incubation; for response (chemosensitivity) of tumors of the basal subtype: basal molecular subtype (MLPH<2000); for response (chemosensitivity) of tumors of the luminal A subtype: luminal A molecular subtype (ESR1 >6000, PGR >160)
Protocol: In a second step for the identification of an optimal predictive gene signature in vitro chemosensitivity assays of primary tumors are performed to determine the response of a tumor towards a single chemotherapeutic agent. In said in vitro chemosensitivity assays the primary tumors were cultivated in different assays with increasing concentrations of the agents. After 6 days of incubation the vitality of the tumor cells were determined with an ATP-measurement. Hereby, the growing inhibition for the different agent concentrations could be determined and a dose-response curve could be provided. For each tumor the Area under the dose-response curve (AUC) could be determined for the different agents. The AUC is used to evaluate the response of a tumor towards a chemotherapeutic agent. The bigger the AUC, the more sensitive is the tumor towards the agent. The tumor samples were classified according to their sensitivity towards the agents into three classes (resistant, intermediate, sensitive) via the tertiles of the AUC arrangement.

NCI 60 cell lines = assay: NCI 60 cell line chemosensitivity (GI-50); format: cell-based; details: AKR1C1 cut-off score 5000
Protocol: In this study several tumor cell lines of different cancer types were tested for their sensitivity towards several chemotherapeutic agents. The GI-50 value (concentration, where half of the tumor cells are inhibited regarding growing) for Paclitaxel was used to test, whether AKR1C1 is appropriate for a prediction of a Paclitaxel sensitivity in cell lines. […] The defined cut-off score (5000) allowed a significant classification (p=0.0049) of the resistant and sensitive tumor cells of the NCI 60 cell lines (FIG. 14).
NCI 60 cell lines were classified with the marker gene AKR1C1 (cut-off score 5000). Onto the ordinate the concentration of Palitaxel is depicted, which is needed for the inhibition of half of the cells (GI-50). Altogether for Paclitaxel 54 GI-50 values for the cell lines were provided.

## COc1cccc2c1C(=O)c1c(O)c3c(c(O)c1C2=O)C[C@@](O)(C(=O)CO)C[C@@H]3O[C@H]1C[C@H](N)[C@@H](O)[C@H](C)O1 [Epirubicin]
Primary tumors
  response (chemosensitivity) of tumors of the basal subtype: particularly sensitive
  response (chemosensitivity) of tumors of the luminal A subtype: resistant

## CC(=O)O[C@H]1C(=O)[C@@]2(C)[C@H]([C@H](OC(=O)c3ccccc3)[C@]3(O)C[C@H](OC(=O)[C@H](O)[C@@H](NC(=O)c4ccccc4)c4ccccc4)C(C)=C1C3(C)C)[C@]1(OC(C)=O)CO[C@@H]1C[C@@H]2O [Paclitaxel]
Primary tumors
  response (chemosensitivity) of tumors of the basal subtype: particularly sensitive
  response (chemosensitivity) of tumors of the luminal A subtype: resistant
NCI 60 cell lines
  sensitivity (GI-50) of cell lines with high expression of AKR1C1: mainly are resistant
